Reference: US10865216B2, “Tricyclic Gyrase inhibitors” (MERCK SHARP & DOHME CORP., priority 2012, dated 2020)
In brackets after ≈: the same amount, converted by molar mass. Like-named read-outs stand apart in the source and are kept apart here.

Tests used:
Format in all cases: cell-based
P. aeruginosa ATCC 15692 = test: MIC, P. aeruginosa ATCC 15692; conditions: for Pa MIC / MIC: Table 10, Pa = P. aeruginosa; for MIC: Pseudomonas aeruginosa, ATCC15692
[1] = test system: B. thailandensis ATCC E264; test: microbe, parasite or virus in culture
[2] = test system: F. tularensis holarctica LVS; test: microbe, parasite or virus in culture; conditions: Table 10; Ft = F. tularensis, strain not stated
S. aureus ATCC 13709 = test: MIC, S. aureus ATCC 13709; conditions: for MIC Sa: S. aureus; for Sa MIC: Table 10; for MIC: Staphylococcus aureus
[3] = test system: K. pneumoniae ATCC 700603; test: MIC, K. pneumoniae ATCC 700603; conditions: Table 10, Kpn = K. pneumoniae; for MIC: Klebsiella pneumoniae, ATCC700603
S. pneumoniae ATCC 51916 = test: MIC, S. pneumoniae ATCC 51916; conditions: for Spn MIC / MIC: Table 10, Spn = S. pneumoniae; for MIC: Streptococcus pneumoniae, ATCC51916
A. baumannii ATCC 19606 = test: MIC, A. baumannii ATCC 19606; conditions: Table 10, Ab = A. baumannii, strain not stated; for MIC: Acinetobacter baumannii, ATCC19606
E. coli ATCC 25922 = test: MIC, E. coli ATCC 25922; conditions: for MIC Ec: E. coli; for Ec MIC: Table 10; for MIC: Escherichia coli; for EC8 MIC: Table 14, R2 is a 5 membered heterocycle
Y. pestis CO92 pgm- = conditions: Table 10
[4] = test system: S. aureus ATCC 13709 + mouse serum; test: MIC, SA + serum (S. aureus ATCC 13709, MHCA + mouse serum); conditions: Table 14; R2 is a 5 membered heterocycle
[5] = Alamar Blue read after overnight incubation at 35° C.
[6] = Ec = E. coli, strain not stated
[7] = ATCC13709, S. aureus, Alamar Blue read after overnight incubation at 35° C., read-out: MIC Sa
[8] = ATCC13709, Table 10, Sa = S. aureus, read-out: Sa MIC
[9] = ATCC25922, E. coli, Alamar Blue read after overnight incubation at 35° C., read-out: MIC Ec
[10] = ATCC25922, Table 10, Ec = E. coli, strain not stated, read-out: Ec MIC
[11] = Table 14, R2 is a 5 membered heterocycle
[12] = ATCC13709, Table 16, new R4 substituents, read-out: SA MIC
[13] = ATCC25922, Table 16, new R4 substituents, EC8 not defined, read-out: EC8 MIC
[14] = Table 17, comparative, new species of R2

With `CNc1cc(F)cc2c1[nH]c1nc(Oc3cnc(C)nc3)nc(N3CC4CC(N)C4C3)c12` (stereo not shown) [Compound 4.084] the “Pa MIC” value (P. aeruginosa ATCC 15692) was 1 µg/mL, the “Bt MIC” value [1] was at most 0.5 µg/mL and the “Ft MIC” value [2] was at most 0.5 µg/mL. The “MIC Sa” value (S. aureus ATCC 13709; [5]) was at most 0.5 µg/mL, the “Sa MIC” value (S. aureus ATCC 13709; Sa = S. aureus) was at most 0.5 µg/mL and the “Kpn MIC” value [3] was 4 µg/mL. The “Spn MIC” value (S. pneumoniae ATCC 51916) was at most 0.5 µg/mL, the “Ab MIC” value (A. baumannii ATCC 19606) was at most 0.5 µg/mL and the “MIC Ec” value (E. coli ATCC 25922; [5]) was at most 0.5 µg/mL. For the same molecule, the “Ec MIC” value (E. coli ATCC 25922; [6]) was at most 0.5 µg/mL and the “Yp MIC” value (Y. pestis CO92 pgm-) was at most 0.5 µg/mL.

`CNc1cc(F)cc2c1[nH]c1nc(Oc3cnc(C)nc3)nc(N3C[C@@H]4CCN[C@@H]4C3)c12` [Compound 4.103] was tested, and the “Pa MIC” value (P. aeruginosa ATCC 15692) was 2 µg/mL, the “Bt MIC” value [1] was at most 0.5 µg/mL and the “Ft MIC” value [2] was 1 µg/mL. The “MIC Sa” value (S. aureus ATCC 13709; [5]) was at most 0.5 µg/mL, the “Sa MIC” value (S. aureus ATCC 13709; Sa = S. aureus) was at most 0.5 µg/mL and the “Kpn MIC” value [3] was 2 µg/mL. The “Spn MIC” value (S. pneumoniae ATCC 51916) was at most 0.5 µg/mL, the “Ab MIC” value (A. baumannii ATCC 19606) was at most 0.5 µg/mL and the “MIC Ec” value (E. coli ATCC 25922; [5]) was at most 0.5 µg/mL. The “Ec MIC” value (E. coli ATCC 25922; [6]) was at most 0.5 µg/mL and the “Yp MIC” value (Y. pestis CO92 pgm-) was at most 0.5 µg/mL.

With `CNc1cc(F)cc2c1[nH]c1nc(Oc3cnc(C)nc3)nc(N3CC4(CC[C@H]4N)C3)c12` [Compound 4.105] the “Pa MIC” value (P. aeruginosa ATCC 15692) was 1 µg/mL, the “Bt MIC” value [1] was at most 0.5 µg/mL and the “Ft MIC” value [2] was 1 µg/mL. For the same molecule, the “MIC Sa” value (S. aureus ATCC 13709; [5]) was at most 0.5 µg/mL, the “Sa MIC” value (S. aureus ATCC 13709; Sa = S. aureus) was at most 0.5 µg/mL and the “Kpn MIC” value [3] was 2 µg/mL. The “Spn MIC” value (S. pneumoniae ATCC 51916) was at most 0.5 µg/mL, the “Ab MIC” value (A. baumannii ATCC 19606) was at most 0.5 µg/mL and the “MIC Ec” value (E. coli ATCC 25922; [5]) was at most 0.5 µg/mL. For the same molecule, the “Ec MIC” value (E. coli ATCC 25922; [6]) was at most 0.5 µg/mL and the “Yp MIC” value (Y. pestis CO92 pgm-) was at most 0.5 µg/mL.

In the case of `CNc1cc(F)cc2c1[nH]c1nc(Oc3cnc(C)nc3)nc(N3CCC4(CCC4N)C3)c12` (stereo not shown) [Compound 4.117], the “Pa MIC” value (P. aeruginosa ATCC 15692) is reported as 1 µg/mL, the “Bt MIC” value [1] is reported as at most 0.5 µg/mL and the “Ft MIC” value [2] is reported as 1 µg/mL. The “MIC Sa” value (S. aureus ATCC 13709; [5]) was at most 0.5 µg/mL, the “Sa MIC” value (S. aureus ATCC 13709; Sa = S. aureus) was at most 0.5 µg/mL and the “Kpn MIC” value [3] was 2 µg/mL. For the same molecule, the “Spn MIC” value (S. pneumoniae ATCC 51916) was at most 0.5 µg/mL, the “Ab MIC” value (A. baumannii ATCC 19606) was at most 0.5 µg/mL and the “MIC Ec” value (E. coli ATCC 25922; [5]) was at most 0.5 µg/mL. The “Ec MIC” value (E. coli ATCC 25922; [6]) was at most 0.5 µg/mL and the “Yp MIC” value (Y. pestis CO92 pgm-) was at most 0.5 µg/mL.

For `CNc1cc(F)cc2c1[nH]c1nc(Oc3cnc(C)nc3)nc(N3CC4NCCC4(C)C3)c12` (stereo not shown) [Compound 4.157], the “Pa MIC” value (P. aeruginosa ATCC 15692) was 8 µg/mL, the “MIC Sa” value (S. aureus ATCC 13709; [5]) was at most 0.5 µg/mL and the “Sa MIC” value (S. aureus ATCC 13709; Sa = S. aureus) was at most 0.5 µg/mL. For the same molecule, the “Kpn MIC” value [3] was 4 µg/mL, the “Spn MIC” value (S. pneumoniae ATCC 51916) was at most 0.5 µg/mL and the “Ab MIC” value (A. baumannii ATCC 19606) was at most 0.5 µg/mL. For the same molecule, the “MIC Ec” value (E. coli ATCC 25922; [5]) was at most 0.5 µg/mL and the “Ec MIC” value (E. coli ATCC 25922; [6]) was at most 0.5 µg/mL.

For `CNc1cc(F)cc2c1[nH]c1nc(Oc3cnc(C(C)O)nc3)nc(N3CC4(CCC4N)C3)c12` (stereo not shown) [Compound 4.410], the “Pa MIC” value (P. aeruginosa ATCC 15692) was 1 µg/mL, the “MIC Sa” value (S. aureus ATCC 13709; [5]) was at most 0.5 µg/mL and the “Sa MIC” value (S. aureus ATCC 13709; Sa = S. aureus) was at most 0.5 µg/mL. The “Kpn MIC” value [3] was 2 µg/mL, the “Spn MIC” value (S. pneumoniae ATCC 51916) was at most 0.5 µg/mL and the “Ab MIC” value (A. baumannii ATCC 19606) was 2 µg/mL. The “MIC Ec” value (E. coli ATCC 25922; [5]) was at most 0.5 µg/mL and the “Ec MIC” value (E. coli ATCC 25922; [6]) was at most 0.5 µg/mL.

`CNc1cc(F)cc2c1[nH]c1nc(Oc3ccc(C#N)nc3)nc(N3C[C@H]4C[C@@H]3C[C@H]4N)c12` [Compound 4.434] showed an MIC (P. aeruginosa ATCC 15692) of 1 µg/mL (≈ 2.25 µM), an MIC (S. aureus ATCC 13709; [7]) of at most 0.5 µg/mL and an MIC (S. aureus ATCC 13709; [8]) of at most 0.5 µg/mL. It also gave an MIC [3] of 1 µg/mL (≈ 2.25 µM), an MIC (S. pneumoniae ATCC 51916) of at most 0.5 µg/mL and an MIC (A. baumannii ATCC 19606) of at most 0.5 µg/mL. For the same molecule, the MIC (E. coli ATCC 25922; [9]) was at most 0.5 µg/mL and the MIC (E. coli ATCC 25922; [10]) was at most 0.5 µg/mL.

In the case of `CNc1cc(F)c(C)c2c1[nH]c1nc(Oc3cnc(C)nc3)nc(N3CC4C[C@@H]3C[C@H]4N)c12` [Compound 6.280], the MIC (P. aeruginosa ATCC 15692) is reported as 1 µg/mL (≈ 2.23 µM), the MIC (S. aureus ATCC 13709; [7]) is reported as at most 0.5 µg/mL and the MIC (S. aureus ATCC 13709; [8]) is reported as at most 0.5 µg/mL. It also gave an MIC [3] of 2 µg/mL (≈ 4.46 µM), an MIC (S. pneumoniae ATCC 51916) of at most 0.5 µg/mL and an MIC (A. baumannii ATCC 19606) of at most 0.5 µg/mL. The MIC (E. coli ATCC 25922; [9]) was at most 0.5 µg/mL and the MIC (E. coli ATCC 25922; [10]) was at most 0.5 µg/mL.

Work on `CNc1cc(F)c(C)c2c1[nH]c1nc(Oc3cnc(C)nc3)nc(N3C[C@H](N)C4(CC4)C3)c12` [Compound 6.290] yielded an MIC (P. aeruginosa ATCC 15692) of 2 µg/mL (≈ 4.46 µM), an MIC (S. aureus ATCC 13709; [7]) of at most 0.5 µg/mL and an MIC (S. aureus ATCC 13709; [8]) of at most 0.5 µg/mL. The MIC [3] was 2 µg/mL (≈ 4.46 µM), the MIC (S. pneumoniae ATCC 51916) was at most 0.5 µg/mL and the MIC (A. baumannii ATCC 19606) was at most 0.5 µg/mL. It also gave an MIC (E. coli ATCC 25922; [9]) of at most 0.5 µg/mL and an MIC (E. coli ATCC 25922; [10]) of at most 0.5 µg/mL.

For `CNc1cc(F)cc2c1[nH]c1nc(Sc3nncs3)nc(N3C[C@H]4C[C@@H]3C[C@H]4N)c12` [drawing 1754], the SA+ serum MIC [4] was at most 0.5 µg/mL, the “SA MIC” value (S. aureus ATCC 13709; [11]) was <≤ 0.5 and the EC8 MIC (E. coli ATCC 25922; EC8 not defined) was at most 0.5 µg/mL.

`CCOC(=O)c1csc(Nc2nc(N3C[C@H]4C[C@@H]3C[C@H]4N)c3c(n2)[nH]c2c(NC)cc(F)cc23)n1` [drawing 1760] was tested, and the SA+ serum MIC [4] was over 16 µg/mL, the SA MIC (S. aureus ATCC 13709; [11]) was at most 0.5 µg/mL and the EC8 MIC (E. coli ATCC 25922; EC8 not defined) was 1 µg/mL.

Work on `CNc1cc(F)cc2c1[nH]c1nc(Oc3cnc(C)nc3)nc(N3CC(N)C(C(=O)OC)C3)c12` (stereo not shown) [drawing 1825] yielded an MIC (S. aureus ATCC 13709; [12]) of at most 0.5 µg/mL and an MIC (E. coli ATCC 25922; [13]) of 1 µg/mL (≈ 2.14 µM).

Work on `CNc1cc(F)cc2c1[nH]c1nc(Oc3cnc(C)nc3)nc(N3CC(N)C(C(=O)N4CCOCC4)C3)c12` (stereo not shown) [drawing 1827] yielded an MIC (S. aureus ATCC 13709; [12]) of 1 µg/mL (≈ 1.92 µM) and an MIC (E. coli ATCC 25922; [13]) of 16 µg/mL (≈ 30.7 µM).

Molecule `CNc1cc(F)cc2c1[nH]c1nc(Oc3cnc4c(C)cnn4c3)nc(N3C[C@H]4C[C@@H]3C[C@H]4N)c12` [drawing 1831] has a PA MIC (P. aeruginosa ATCC 15692; [14]) of 0.5 µg/mL, an SA MIC (S. aureus ATCC 13709; [14]) of at most 0.016 µg/mL and a Spn52 MIC (S. pneumoniae ATCC 51916; Table 17, comparative, Spn52 not defined) of at most 0.001 µg/mL.
